In US5731328A, “Methods of inhibiting plasminogen activator inhibitor 1” (Eli Lilly and Company, priority 1996, dated 1998):

Assays:
[1] = tested on: Human umbilical vein endothelial cells (HUVEC); assay: Responsiveness of HUVEC lots to 17-beta estradiol; type: cell-based; conditions: several lots of cells from Clonetics, initial experiments
[2] = tested on: secretion of PAI-1 from human endothelial cells (HUVEC); assay: Endothelial cell PAI-1 assay: IL-1 induced PAI-1 secretion, Imubind Plasma PAI-1 ELISA; type: cell-based
Procedure: 96 well tissue culture plates were prepared with 5×10^4 human endothelial cells (HUVEC) per well in Clonetics' Endothelial Cell Growth Medium (EGM) supplemented with 2% FBS. Following incubation overnight at 37° C., the medium was replaced with serum-free medium (DMEM/F-12 medium, 20 mM-HEPES, pH 7.5, 50 μg/ml gentamicin, 1 μg/ml human transferrin and 1 μg/ml bovine insulin) with or without compound 1, (where R1 and R2 are hydroxy, and […] is pyrrolidino), and with or without 1 nM IL-1-beta. Following incubation overnight at 37° C., samples of culture medium were assayed for secreted PAI-1 using the Imubind Plasma PAI-1 ELISA (American Diagnostic Inc. #822/1S).
Human umbilical vein endothelial cells (HUVEC) were treated with compound 1 concurrent to the induction of PAI-1 with IL-1. […] Further the positive effect of compound 1 on reducing PAI-1 may provide for acute uses in conditions where elevated levels are associated with pathology.

estrogen receptor = conditions: cited from earlier work
PAI-1 = conditions: post-menopausal women, estrogen therapy; cited from earlier work

C[C@]12CC[C@@H]3c4ccc(O)cc4CC[C@H]3[C@@H]1CC[C@@H]2O [17-beta estradiol]
responsiveness of HUVEC lots (in words) [1]: not all lots were responsive

O=C(c1ccc(OCCN2CCCC2)cc1)c1c(-c2ccc(O)cc2)sc2cc(O)ccc12 [Compound 1]
induction of PAI-1 by IL-1 (in words) ([2]; 0.5 nM, estrogen-responsive line): significantly reduced the induction of PAI-1 by IL-1 | inhibition at 0.005 µM ([2]; Homo sapiens, 5 × 10^-9 M, IL-1 induced secretion, different lot of estrogen-responsive HUVEC, read-out: PAI-1 Level (% inhibition)): 82 ± 17% | inhibition at 0.0005 µM ([2]; Homo sapiens, 5 × 10^-10 M, IL-1 induced secretion, different lot of estrogen-responsive HUVEC, read-out: PAI-1 Level (% inhibition)): 65 ± 8% | inhibition at 50 pM ([2]; Homo sapiens, 5 × 10^-11 M, IL-1 induced secretion, different lot of estrogen-responsive HUVEC, read-out: PAI-1 Level (% inhibition)): 48 ± 11% | inhibition at 5 pM ([2]; Homo sapiens, 5 × 10^-12 M, IL-1 induced secretion, different lot of estrogen-responsive HUVEC, read-out: PAI-1 Level (% inhibition)): 22 ± 4% | inhibition at 500 fM ([2]; Homo sapiens, 5 × 10^-13 M, IL-1 induced secretion, different lot of estrogen-responsive HUVEC, read-out: PAI-1 Level (% inhibition)): -1 ± 7% | inhibition at 50 fM ([2]; Homo sapiens, 5 × 10^-14 M, IL-1 induced secretion, different lot of estrogen-responsive HUVEC, read-out: PAI-1 Level (% inhibition)): 0% | PAI-1 Level (mean +/- SE, n = 4) ([2]; IL-1 & .5 nM compound 1, HUVEC, overnight at 37° C., serum-free medium, No IL-1 control 328 +/- 46, IL-1 alone 735 +/- 11): 521 ± 52 ng/mL | inhibition of IL-1 induced PAI-1 secretion, concentration dependence (in words) ([2]; different lot of estrogen-responsive cells): inhibited IL-1 induced secretion in a concentration-dependent manner | inhibition of the induction of PAI-1 from activated endothelial cells (in words) ([2]; summary of Tables 1 and 2): very potent inhibitor

O=C(c1ccc(OCCN2CCCCC2)cc1)c1c(-c2ccc(O)cc2)sc2cc(O)ccc12 [Raloxifene]
binding to the estrogen receptor (in words) (estrogen receptor): shown to bind to the estrogen receptor

estrogen
reduction of PAI-1 levels (in words) (PAI-1): reduced to pre-menopausal levels
